Assay: Characterisation of new polymorphs: XRPD before and after drying/grinding
Format: physicochemical
Description: 500 μL 1,1,1.3.3.3-Hexafluoro-2-Propanol was added to 20 mg of amorphous farudodstat DSP polymorph in a 1.5 mL of HPLC vial equipped with a magnetic stirring bar, resulting in formation of a mobile slurry. The slurry was isothermally stirred for 2 weeks at 40° C. An additional 20 mg of material was added to the slurry as it became a clear solution after one week. Solids were isolated by centrifugation using a […] Nylon filter, and were analysed without any further drying by XRPD, TGA and 1H NMR (proton nuclear magnetic resonance). Finally, the samples were dried at 40° C. for 4 hrs and then reanalysed by XRPD.
350 μL of N-Methylpyrrolidone (NMP) was added to 20 mg of amorphous farudodstat DSP polymorph in a 1.5 mL HPLC vial equipped with a magnetic stirring bar to prepare a mobile slurry. The resulting slurry was thermally cycled for 3 days between 5-40° C. (Ramp rate: 0.1° C./min with isothermal holds of 1 hour at 40° C. and 5° C.). The saturated solution was then evaporated at 100° C., before the solids were analysed by XRPD.

Stability of polymorphic form: unstable/metastable | XRPD after gentle grinding (gentle grinding): did not change the pattern observed
SMILES: COc1cccc(-c2cc(F)c(Nc3ncccc3C(=O)O)c(F)c2)c1 [NMP polymorph]
Form after drying (drying at 40° C. for 4 hours): conversion of Pattern 3 back to Pattern 1

From US20250145570A1, “DHODH INHIBITOR POLYMORPH” (Aslan Pharmaceuticals Pte Ltd, priority 2022, published 2025)
